Assay results as given in ChEMBL document CHEMBL1153036, “Structure-based de novo design and biochemical evaluation of novel Cdc25 phosphatase inhibitors” (Bioorg Med Chem Lett, 2009).

What was measured:
[1] = target: T1, M-phase inducer phosphatase 1 (Homo sapiens, UniProt P30304); assay: Inhibition of N-terminal 6xHis-tagged human Cdc25A (336-523) catalytic domain expressed in Escherichia coli after 20 mins by fluorescent plate reader assay
T1 sequence (P30304 whole entry): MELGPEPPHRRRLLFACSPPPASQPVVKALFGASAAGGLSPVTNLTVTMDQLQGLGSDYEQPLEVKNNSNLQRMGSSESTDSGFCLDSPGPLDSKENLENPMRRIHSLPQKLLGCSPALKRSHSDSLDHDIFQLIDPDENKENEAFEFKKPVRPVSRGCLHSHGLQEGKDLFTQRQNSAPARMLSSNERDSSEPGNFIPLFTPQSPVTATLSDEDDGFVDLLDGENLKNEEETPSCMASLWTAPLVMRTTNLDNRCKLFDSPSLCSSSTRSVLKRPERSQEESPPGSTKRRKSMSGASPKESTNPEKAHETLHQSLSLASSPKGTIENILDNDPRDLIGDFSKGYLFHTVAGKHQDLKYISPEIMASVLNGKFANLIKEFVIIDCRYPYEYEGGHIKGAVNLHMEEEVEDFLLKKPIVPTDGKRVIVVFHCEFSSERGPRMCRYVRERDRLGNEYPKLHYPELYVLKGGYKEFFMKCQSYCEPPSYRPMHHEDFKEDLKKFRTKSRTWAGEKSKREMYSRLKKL

[2] = target: T2, M-phase inducer phosphatase 2 (Homo sapiens, UniProt P30305); assay: Inhibition of N-terminal 6xHis-tagged (378-566) catalytic domain of Cdc25B expressed in Escherichia coli after 20 mins by fluorescent plate reader assay
T2 sequence (P30305 whole entry): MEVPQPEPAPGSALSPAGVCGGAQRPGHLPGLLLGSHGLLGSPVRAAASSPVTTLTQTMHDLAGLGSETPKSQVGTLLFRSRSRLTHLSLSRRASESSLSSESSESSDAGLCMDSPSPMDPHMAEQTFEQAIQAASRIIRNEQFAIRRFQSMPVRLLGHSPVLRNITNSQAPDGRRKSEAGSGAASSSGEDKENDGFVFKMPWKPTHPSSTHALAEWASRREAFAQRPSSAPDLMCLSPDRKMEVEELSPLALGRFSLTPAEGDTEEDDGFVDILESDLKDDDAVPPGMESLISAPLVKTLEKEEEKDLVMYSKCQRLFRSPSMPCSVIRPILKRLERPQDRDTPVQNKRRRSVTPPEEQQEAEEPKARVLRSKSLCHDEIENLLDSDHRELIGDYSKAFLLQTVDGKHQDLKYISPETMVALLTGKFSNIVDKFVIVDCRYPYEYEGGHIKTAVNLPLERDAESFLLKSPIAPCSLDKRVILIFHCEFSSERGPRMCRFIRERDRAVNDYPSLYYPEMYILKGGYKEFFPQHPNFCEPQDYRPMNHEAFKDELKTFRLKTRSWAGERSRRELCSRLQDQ

SMILES | IC50 [1] | IC50 [2]
Oc1nc(Nc2ccc(Cl)cc2Cl)sc1/C=C1\C=Nc2ccccc21 | 12.6 µM | 2.6 µM
Cc1ccc(/N=C2N=C(O)/C(=C/C=C/c3ccco3)S\2)cc1C | 7.1 µM | 1.8 µM
O=C1N=C(Nc2ccc(F)cc2)S/C1=C\c1cccs1 | 30.7 µM | 8.9 µM
O=C1N=C(Nc2cc(Cl)cc(Cl)c2)S/C1=C\C=C\c1ccco1 | 4.1 µM | 2.3 µM
O=C1N=C(Nc2ccc(Cl)cc2Cl)S/C1=C\C=C\c1ccco1 | 6.7 µM | 4.5 µM
O=C1N=C(Nc2cccc(Br)c2)S/C1=C\C=C\c1ccco1 | 7.7 µM | 2.7 µM
CC(=C/c1ccccc1)/C=C1\SC(Nc2ccc(C)c(C)c2)=NC1=O | 8.1 µM | 2.3 µM
O=C1N=C(Nc2cccc(O)c2)S/C1=C\c1cccs1 | 7.8 µM | 2.8 µM
CC(=C/c1ccccc1)/C=C1\SC(Nc2ccccc2Cl)=NC1=O | 10.3 µM | 3.9 µM
CC(=C/c1ccccc1)/C=C1\SC(Nc2cc(Cl)cc(Cl)c2)=NC1=O | 5.1 µM | 1.2 µM
O=C1N=C(Nc2cc(Cl)cc(Cl)c2)S/C1=C\c1c[nH]c2ccccc12 | 12.7 µM | 2.3 µM
Cn1cccc1/C=C1\SC(Nc2ccc(F)cc2)=NC1=O | 14.3 µM | 3.7 µM
O=C1N=C(Nc2ccccc2Cl)S/C1=C\C=C\c1ccco1 | 10.1 µM | 2.1 µM
CC(=C/c1ccccc1)/C=C1\SC(Nc2ccc(Br)cc2)=NC1=O | 17.3 µM | 5.1 µM
O=C1N=C(Nc2cccc(Cl)c2Cl)S/C1=C\C=C\c1ccco1 | 6.2 µM | 2.1 µM

Further lines, results first:

IC50 [1] | IC50 [2] | SMILES
9.2 µM | 4.7 µM | COc1ccc(-n2c(SCC(=O)c3ccc(O)c(O)c3)nnc2-c2ccc(C)cc2)cc1
11.5 µM | 1.6 µM | O=C(CSc1nnc(-c2ccc(Cl)cc2)n1-c1ccccc1)c1ccc(O)c(O)c1
19 µM | 5.4 µM | Cn1c(SCC(=O)c2ccc([N+](=O)[O-])cc2)nnc1-c1cccc(NC(=O)c2ccccc2F)c1
12.8 µM | 3.3 µM | CC(=C/c1ccccc1)/C=C1\SC(Nc2cccc(Cl)c2)=NC1=O
4.7 µM | 2.3 µM | Cc1ccc(-c2nnc(SCC(=O)c3ccc(O)c(O)c3)n2Cc2ccco2)cc1
11.1 µM | 4.4 µM | O=C1N=C(Nc2ccc(Cl)cc2)S/C1=C\c1cccs1
6 µM | 1.7 µM | COc1ccc(-c2nnc(SCC(=O)c3ccc(O)c(O)c3)n2-c2ccccc2)cc1
13.1 µM | 4.2 µM | Cn1c(SCC(=O)c2ccc(-c3ccccc3)cc2)nnc1-c1ccncc1
11.1 µM | 4.4 µM | Cn1c(SCC(=O)c2ccc([N+](=O)[O-])cc2)nnc1-c1cccc(Cl)c1
7.1 µM | 2.5 µM | Cc1ccc(-c2nnc(SCC(=O)c3ccc(O)c(O)c3)n2-c2ccccc2)cc1
13 µM | 2 µM | Cn1c(SCC(=O)c2ccc(-c3ccccc3)cc2)nnc1-c1ccco1
17.2 µM | 6 µM | CCn1c(SCC(=O)c2ccc(Cl)cc2)nnc1-c1cccnc1
14.5 µM | 5.2 µM | C=Cn1c(SCC(=O)c2ccc(Cl)cc2)nnc1-c1ccco1
15.4 µM | 3.1 µM | Cn1cccc1/C=C1\SC(Nc2ccc(Cl)cc2)=NC1=O
9.1 µM | 3.2 µM | O=C1N=C(Nc2cccc(Cl)c2)S/C1=C\C=C\c1ccco1
